Assay results taken from patent publication US10844077B2, “Thiazolyl-containing compounds for treating proliferative diseases” (Dana-Farber Cancer Institute, Inc., priority 2014, dated 2020).

Key:
Assay type in all cases: binding
broad panel of kinases [1] = target: broad panel of kinases (Homo sapiens, UniProt Q96GD4); details: AURKB; 1 μM
broad panel of kinases [2] = target: broad panel of kinases (Homo sapiens, UniProt Q5VT25); details: MRCKA; 1 μM
broad panel of kinases [3] = target: broad panel of kinases (Homo sapiens, UniProt Q9H4B4); details: PLK3; 1 μM
broad panel of kinases [4] = target: broad panel of kinases (Homo sapiens, UniProt Q9NRM7); details: LATS2; 1 μM
broad panel of kinases [5] = target: broad panel of kinases (Homo sapiens, UniProt Q8NEV4); details: MYO3A; 1 μM
broad panel of kinases [6] = target: broad panel of kinases (Homo sapiens, UniProt O75116); details: ROCK2; 1 μM
broad panel of kinases [7] = target: broad panel of kinases (Homo sapiens, UniProt O00329); details: PIK3CD; 1 μM
broad panel of kinases [8] = target: broad panel of kinases (Homo sapiens, UniProt Q13557); details: CAMK2D; 1 μM
broad panel of kinases [9] = target: broad panel of kinases (Homo sapiens, UniProt P29317); details: EPHA2; 1 μM
broad panel of kinases [10] = target: broad panel of kinases (Homo sapiens, UniProt P51955); details: NEK2; 1 μM
broad panel of kinases [11] = target: broad panel of kinases (Homo sapiens, UniProt P49840); details: GSK3A; 1 μM
broad panel of kinases [12] = target: broad panel of kinases (Homo sapiens, UniProt Q15375); details: EPHA7; 1 μM
broad panel of kinases [13] = target: broad panel of kinases (Homo sapiens, UniProt P00533, G719C); details: EGFR(G719C); 1 μM
broad panel of kinases [14] = target: broad panel of kinases (Homo sapiens, UniProt Q9UM73); details: ALK; 1 μM
broad panel of kinases [15] = target: broad panel of kinases (Homo sapiens, UniProt Q9NRH2); details: SNRK; 1 μM
broad panel of kinases [16] = target: broad panel of kinases (Homo sapiens, UniProt Q07912); details: TNK2; 1 μM
broad panel of kinases [17] = target: broad panel of kinases (Homo sapiens, UniProt P53671); details: LIMK2; 1 μM
broad panel of kinases [18] = target: broad panel of kinases (Homo sapiens, UniProt Q59H18); details: TNNI3K; 1 μM
broad panel of kinases [19] = target: broad panel of kinases (Homo sapiens, UniProt Q13464); details: ROCK1; 1 μM
broad panel of kinases [20] = target: broad panel of kinases (Homo sapiens, UniProt O43293); details: DAPK3; 1 μM
broad panel of kinases [21] = target: broad panel of kinases (Homo sapiens, UniProt P53355); details: DAPK1; 1 μM
broad panel of kinases [22] = target: broad panel of kinases (Homo sapiens, UniProt P78362); details: SRPK2; 1 μM
broad panel of kinases [23] = target: broad panel of kinases (Homo sapiens, UniProt Q14680); details: MELK; 1 μM
broad panel of kinases [24] = target: broad panel of kinases (Homo sapiens, UniProt Q15835); details: GRK1; 1 μM
broad panel of kinases [25] = target: broad panel of kinases (Homo sapiens, UniProt P00533, G719S); details: EGFR(G719S); 1 μM
broad panel of kinases [26] = target: broad panel of kinases (Homo sapiens, UniProt P36888, N841I); details: FLT3(N841I); 1 μM
broad panel of kinases [27] = target: broad panel of kinases (Homo sapiens, UniProt Q9HBH9); details: MKNK2; 1 μM
broad panel of kinases [28] = target: broad panel of kinases (Homo sapiens, UniProt Q13237); details: PRKG2; 1 μM
broad panel of kinases [29] = target: broad panel of kinases (Homo sapiens, UniProt P00533, L858R); details: EGFR(L858R); 1 μM
broad panel of kinases [30] = target: broad panel of kinases (Homo sapiens, UniProt Q9Y243); details: AKT3; 1 μM
broad panel of kinases [31] = target: broad panel of kinases (Homo sapiens, UniProt Q16513); details: PKN2; 1 μM
broad panel of kinases [32] = target: broad panel of kinases (Homo sapiens, UniProt P78356); details: PIP5K2B; 1 μM
broad panel of kinases [33] = target: broad panel of kinases (Homo sapiens, UniProt Q9Y616); details: IRAK3; 1 μM
broad panel of kinases [34] = target: broad panel of kinases (Homo sapiens, UniProt P80192); details: MLK1; 1 μM
broad panel of kinases [35] = target: broad panel of kinases (Homo sapiens, UniProt O14578); details: CIT; 1 μM
broad panel of kinases [36] = target: broad panel of kinases (Homo sapiens, UniProt Q7KZI7); details: MARK2; 1 μM
broad panel of kinases [37] = target: broad panel of kinases (Homo sapiens, UniProt P04629); details: TRKA; 1 μM
broad panel of kinases (Homo sapiens, UniProt P04629), sequence (P04629 33-796 limits assumed): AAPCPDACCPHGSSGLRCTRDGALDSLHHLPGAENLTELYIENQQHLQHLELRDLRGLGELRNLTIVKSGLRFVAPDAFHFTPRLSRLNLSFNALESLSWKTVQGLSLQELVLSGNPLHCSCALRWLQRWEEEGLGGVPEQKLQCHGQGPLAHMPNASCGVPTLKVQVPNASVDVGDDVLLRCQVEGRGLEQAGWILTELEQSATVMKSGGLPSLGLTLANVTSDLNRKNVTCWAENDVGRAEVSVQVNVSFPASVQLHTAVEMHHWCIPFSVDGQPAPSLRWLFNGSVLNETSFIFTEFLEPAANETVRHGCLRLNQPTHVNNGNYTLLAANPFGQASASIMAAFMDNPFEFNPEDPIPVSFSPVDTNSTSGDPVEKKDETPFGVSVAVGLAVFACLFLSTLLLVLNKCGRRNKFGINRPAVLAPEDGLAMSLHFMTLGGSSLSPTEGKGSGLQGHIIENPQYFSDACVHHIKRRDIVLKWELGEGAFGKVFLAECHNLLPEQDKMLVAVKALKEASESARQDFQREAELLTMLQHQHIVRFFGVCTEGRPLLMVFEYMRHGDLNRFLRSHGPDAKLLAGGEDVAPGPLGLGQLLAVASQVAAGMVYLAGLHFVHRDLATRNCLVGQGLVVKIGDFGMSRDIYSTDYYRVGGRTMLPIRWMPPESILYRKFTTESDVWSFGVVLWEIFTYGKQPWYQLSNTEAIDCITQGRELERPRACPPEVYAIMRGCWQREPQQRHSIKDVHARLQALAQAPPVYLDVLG

broad panel of kinases (Homo sapiens, UniProt Q13557), sequence (Q13557 2-499 limits assumed): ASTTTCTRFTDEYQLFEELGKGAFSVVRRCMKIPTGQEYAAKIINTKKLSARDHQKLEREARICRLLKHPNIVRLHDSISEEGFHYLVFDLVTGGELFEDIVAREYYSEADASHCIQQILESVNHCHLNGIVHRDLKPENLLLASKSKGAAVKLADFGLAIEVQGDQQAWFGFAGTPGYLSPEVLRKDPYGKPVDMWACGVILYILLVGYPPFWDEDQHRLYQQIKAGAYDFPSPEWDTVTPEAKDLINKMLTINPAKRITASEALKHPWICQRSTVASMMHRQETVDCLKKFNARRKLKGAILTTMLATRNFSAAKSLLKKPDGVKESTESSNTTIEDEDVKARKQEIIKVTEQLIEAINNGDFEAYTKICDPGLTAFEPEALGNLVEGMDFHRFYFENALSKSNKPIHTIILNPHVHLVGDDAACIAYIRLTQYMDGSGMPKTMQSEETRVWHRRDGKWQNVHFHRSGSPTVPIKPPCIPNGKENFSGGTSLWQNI
broad panel of kinases (Homo sapiens, UniProt Q9UM73), sequence (Q9UM73 19-1620 limits assumed): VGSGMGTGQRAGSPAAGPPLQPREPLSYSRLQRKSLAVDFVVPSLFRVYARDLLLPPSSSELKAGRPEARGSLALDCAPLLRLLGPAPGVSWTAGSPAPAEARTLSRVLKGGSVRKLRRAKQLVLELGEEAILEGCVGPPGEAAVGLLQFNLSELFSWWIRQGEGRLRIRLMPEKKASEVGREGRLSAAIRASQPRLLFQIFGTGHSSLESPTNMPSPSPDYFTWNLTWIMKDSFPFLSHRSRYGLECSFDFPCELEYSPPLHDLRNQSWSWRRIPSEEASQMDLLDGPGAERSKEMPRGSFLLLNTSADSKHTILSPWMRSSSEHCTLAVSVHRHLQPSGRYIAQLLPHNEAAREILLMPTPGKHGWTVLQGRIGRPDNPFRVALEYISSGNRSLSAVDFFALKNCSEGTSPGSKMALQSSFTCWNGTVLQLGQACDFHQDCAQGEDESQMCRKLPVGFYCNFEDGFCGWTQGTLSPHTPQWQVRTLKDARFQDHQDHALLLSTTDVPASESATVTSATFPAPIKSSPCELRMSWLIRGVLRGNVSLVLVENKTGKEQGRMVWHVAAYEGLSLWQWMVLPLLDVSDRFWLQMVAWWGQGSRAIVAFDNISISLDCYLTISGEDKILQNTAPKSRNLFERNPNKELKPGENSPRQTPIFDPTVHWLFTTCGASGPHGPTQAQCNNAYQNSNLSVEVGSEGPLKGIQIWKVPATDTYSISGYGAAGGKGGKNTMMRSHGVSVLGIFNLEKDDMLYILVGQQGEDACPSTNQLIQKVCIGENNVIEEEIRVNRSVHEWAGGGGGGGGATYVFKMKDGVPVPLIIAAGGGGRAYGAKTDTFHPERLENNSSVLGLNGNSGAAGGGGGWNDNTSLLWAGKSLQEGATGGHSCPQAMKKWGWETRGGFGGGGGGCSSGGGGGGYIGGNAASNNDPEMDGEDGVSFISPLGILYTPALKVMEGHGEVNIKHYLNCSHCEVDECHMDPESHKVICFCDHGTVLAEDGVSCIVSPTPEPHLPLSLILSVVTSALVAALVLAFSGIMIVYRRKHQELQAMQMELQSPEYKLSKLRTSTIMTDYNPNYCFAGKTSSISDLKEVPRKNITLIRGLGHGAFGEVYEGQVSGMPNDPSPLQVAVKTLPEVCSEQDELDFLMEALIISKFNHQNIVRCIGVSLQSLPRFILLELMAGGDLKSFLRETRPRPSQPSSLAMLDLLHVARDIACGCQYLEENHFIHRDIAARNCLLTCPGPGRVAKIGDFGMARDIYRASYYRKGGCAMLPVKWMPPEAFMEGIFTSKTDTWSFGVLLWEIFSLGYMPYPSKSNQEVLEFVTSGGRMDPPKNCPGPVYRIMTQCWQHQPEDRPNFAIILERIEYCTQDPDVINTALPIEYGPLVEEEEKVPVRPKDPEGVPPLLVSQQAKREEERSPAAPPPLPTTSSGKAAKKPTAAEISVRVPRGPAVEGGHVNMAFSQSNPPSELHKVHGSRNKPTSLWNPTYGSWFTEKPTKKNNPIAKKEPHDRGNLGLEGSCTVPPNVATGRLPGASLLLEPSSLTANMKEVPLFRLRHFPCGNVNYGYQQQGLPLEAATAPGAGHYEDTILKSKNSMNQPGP
broad panel of kinases (Homo sapiens, UniProt Q9Y243), sequence (Q9Y243 2-479 limits assumed): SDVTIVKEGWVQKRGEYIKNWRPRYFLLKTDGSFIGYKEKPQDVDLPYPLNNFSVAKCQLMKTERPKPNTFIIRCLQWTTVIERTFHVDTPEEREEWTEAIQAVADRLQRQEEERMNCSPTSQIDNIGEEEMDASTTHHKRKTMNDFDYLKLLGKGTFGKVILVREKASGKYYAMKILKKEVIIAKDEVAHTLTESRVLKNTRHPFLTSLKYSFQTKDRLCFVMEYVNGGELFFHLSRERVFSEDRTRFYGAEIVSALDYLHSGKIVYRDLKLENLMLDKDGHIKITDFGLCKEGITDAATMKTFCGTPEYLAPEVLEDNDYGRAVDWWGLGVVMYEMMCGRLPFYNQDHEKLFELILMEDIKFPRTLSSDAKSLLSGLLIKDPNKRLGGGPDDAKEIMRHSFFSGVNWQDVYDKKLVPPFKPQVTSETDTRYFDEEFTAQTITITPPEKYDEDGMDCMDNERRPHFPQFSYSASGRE
broad panel of kinases (Homo sapiens, UniProt Q13237), sequence (Q13237 2-762 limits assumed): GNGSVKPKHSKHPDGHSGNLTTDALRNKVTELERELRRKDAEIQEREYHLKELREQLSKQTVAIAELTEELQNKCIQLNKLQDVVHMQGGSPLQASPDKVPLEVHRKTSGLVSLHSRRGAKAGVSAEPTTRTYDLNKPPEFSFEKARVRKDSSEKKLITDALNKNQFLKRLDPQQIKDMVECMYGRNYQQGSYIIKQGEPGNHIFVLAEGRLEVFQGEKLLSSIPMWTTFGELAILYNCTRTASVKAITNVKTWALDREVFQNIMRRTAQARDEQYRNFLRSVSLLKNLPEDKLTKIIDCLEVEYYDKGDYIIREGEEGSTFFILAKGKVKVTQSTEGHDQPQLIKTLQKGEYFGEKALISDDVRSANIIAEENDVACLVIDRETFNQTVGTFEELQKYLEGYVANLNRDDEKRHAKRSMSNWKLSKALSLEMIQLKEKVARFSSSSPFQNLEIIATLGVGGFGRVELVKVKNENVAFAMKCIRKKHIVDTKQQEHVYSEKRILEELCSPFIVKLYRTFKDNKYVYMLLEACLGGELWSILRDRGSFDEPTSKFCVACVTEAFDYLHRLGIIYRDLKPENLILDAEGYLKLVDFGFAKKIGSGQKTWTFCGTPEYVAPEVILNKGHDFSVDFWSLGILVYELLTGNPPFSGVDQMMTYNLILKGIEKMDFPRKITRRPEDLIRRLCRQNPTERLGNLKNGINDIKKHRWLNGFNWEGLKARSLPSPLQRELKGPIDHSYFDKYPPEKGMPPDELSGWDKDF
broad panel of kinases (Homo sapiens, UniProt P78356), sequence (P78356 2-416 limits assumed): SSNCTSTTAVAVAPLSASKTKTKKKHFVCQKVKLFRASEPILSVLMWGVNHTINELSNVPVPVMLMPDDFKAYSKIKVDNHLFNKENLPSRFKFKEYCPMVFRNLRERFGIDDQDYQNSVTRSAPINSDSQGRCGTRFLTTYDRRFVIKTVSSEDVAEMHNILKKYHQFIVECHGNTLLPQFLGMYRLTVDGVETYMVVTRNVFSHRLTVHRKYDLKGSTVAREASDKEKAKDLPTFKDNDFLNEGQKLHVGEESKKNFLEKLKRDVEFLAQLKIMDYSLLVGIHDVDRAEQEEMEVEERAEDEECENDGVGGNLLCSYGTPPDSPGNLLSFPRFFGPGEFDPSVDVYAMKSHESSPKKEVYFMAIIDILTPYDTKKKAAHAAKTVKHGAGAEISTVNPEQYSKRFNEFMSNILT
broad panel of kinases (Homo sapiens, UniProt P49840), sequence (P49840 2-483 limits assumed): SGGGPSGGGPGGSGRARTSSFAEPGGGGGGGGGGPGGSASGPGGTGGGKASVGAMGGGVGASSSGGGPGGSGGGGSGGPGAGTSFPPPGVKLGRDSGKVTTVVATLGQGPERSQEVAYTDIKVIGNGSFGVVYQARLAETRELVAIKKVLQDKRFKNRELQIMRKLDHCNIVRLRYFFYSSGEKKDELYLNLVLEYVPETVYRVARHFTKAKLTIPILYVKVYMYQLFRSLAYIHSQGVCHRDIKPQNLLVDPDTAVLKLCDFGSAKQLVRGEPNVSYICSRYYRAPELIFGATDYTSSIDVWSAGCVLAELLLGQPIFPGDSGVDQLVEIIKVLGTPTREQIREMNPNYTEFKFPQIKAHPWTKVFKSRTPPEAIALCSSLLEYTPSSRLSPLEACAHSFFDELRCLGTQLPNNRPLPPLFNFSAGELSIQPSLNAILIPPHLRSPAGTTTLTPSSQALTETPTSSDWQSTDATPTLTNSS

Structure (SMILES) | percent of control binding remaining (lower = stronger binding) (broad panel of kinases [1]) [%] | percent of control binding remaining (lower = stronger binding) (broad panel of kinases [2]) [%] | percent of control binding remaining (lower = stronger binding) (broad panel of kinases [3]) [%] | percent of control binding remaining (lower = stronger binding) (broad panel of kinases [4]) [%] | percent of control binding remaining (lower = stronger binding) (broad panel of kinases [5]) [%] | percent of control binding remaining (lower = stronger binding) (broad panel of kinases [6]) [%] | percent of control binding remaining (lower = stronger binding) (broad panel of kinases [7]) [%] | percent of control binding remaining (lower = stronger binding) (broad panel of kinases [8]) [%] | percent of control binding remaining (lower = stronger binding) (broad panel of kinases [9]) [%] | percent of control binding remaining (lower = stronger binding) (broad panel of kinases [10]) [%] | percent of control binding remaining (lower = stronger binding) (broad panel of kinases [11]) [%] | percent of control binding remaining (lower = stronger binding) (broad panel of kinases [12]) [%] | percent of control binding remaining (lower = stronger binding) (broad panel of kinases [13]) [%] | percent of control binding remaining (lower = stronger binding) (broad panel of kinases [14]) [%] | percent of control binding remaining (lower = stronger binding) (broad panel of kinases [15]) [%] | percent of control binding remaining (lower = stronger binding) (broad panel of kinases [16]) [%] | percent of control binding remaining (lower = stronger binding) (broad panel of kinases [17]) [%] | percent of control binding remaining (lower = stronger binding) (broad panel of kinases [18]) [%] | percent of control binding remaining (lower = stronger binding) (broad panel of kinases [19]) [%] | percent of control binding remaining (lower = stronger binding) (broad panel of kinases [20]) [%] | also measured
C=CC(=O)N1CC[C@H](Nc2nc(CN3CCOCC3)cc(Nc3ncc(C(=O)Nc4c(C)cccc4C)s3)n2)C1 [Example I-2] | 96 | 65 | 99 | 100 | 93 | 95 | 79 | 91 | 0.2 | 100 | 100 | 100 | 23 | 97 | 100 | 31 | 51 | 16 | 88 | 89 | percent of control binding remaining (lower = stronger binding) (broad panel of kinases [21]): 100%; percent of control binding remaining (lower = stronger binding) (broad panel of kinases [22]): 92%; percent of control binding remaining (lower = stronger binding) (broad panel of kinases [23]): 84%; percent of control binding remaining (lower = stronger binding) (broad panel of kinases [24]): 94%; percent of control binding remaining (lower = stronger binding) (broad panel of kinases [25]): 17%; percent of control binding remaining (lower = stronger binding) (broad panel of kinases [26]): 100%; percent of control binding remaining (lower = stronger binding) (broad panel of kinases [27]): 100%; percent of control binding remaining (lower = stronger binding) (broad panel of kinases [28]): 99%; percent of control binding remaining (lower = stronger binding) (broad panel of kinases [29]): 0%; percent of control binding remaining (lower = stronger binding) (broad panel of kinases [30]): 90%; percent of control binding remaining (lower = stronger binding) (broad panel of kinases [31]): 84%; percent of control binding remaining (lower = stronger binding) (broad panel of kinases [32]): 98%; percent of control binding remaining (lower = stronger binding) (broad panel of kinases [33]): 93%; percent of control binding remaining (lower = stronger binding) (broad panel of kinases [34]): 89%; percent of control binding remaining (lower = stronger binding) (broad panel of kinases [35]): 100%; percent of control binding remaining (lower = stronger binding) (broad panel of kinases [36]): 100%; percent of control binding remaining (lower = stronger binding) (broad panel of kinases [37]): 98%
C=CC(=O)N1CC[C@H](Nc2nccc(Nc3ncc(C(=O)Nc4c(C)cccc4C)s3)n2)C1 [Example I-3] | 100 | 88 | 97 | 92 | 96 | 75 | 85 | 92 | 0.6 | 96 | 97 | 100 | 14 | 83 | 92 | 43 | 65 | 44 | 89 | 84 | percent of control binding remaining (lower = stronger binding) (broad panel of kinases [21]): 100%; percent of control binding remaining (lower = stronger binding) (broad panel of kinases [22]): 64%; percent of control binding remaining (lower = stronger binding) (broad panel of kinases [23]): 82%; percent of control binding remaining (lower = stronger binding) (broad panel of kinases [24]): 97%; percent of control binding remaining (lower = stronger binding) (broad panel of kinases [25]): 7.6%; percent of control binding remaining (lower = stronger binding) (broad panel of kinases [26]): 100%; percent of control binding remaining (lower = stronger binding) (broad panel of kinases [27]): 98%; percent of control binding remaining (lower = stronger binding) (broad panel of kinases [28]): 91%; percent of control binding remaining (lower = stronger binding) (broad panel of kinases [29]): 0.75%; percent of control binding remaining (lower = stronger binding) (broad panel of kinases [30]): 81%; percent of control binding remaining (lower = stronger binding) (broad panel of kinases [31]): 100%; percent of control binding remaining (lower = stronger binding) (broad panel of kinases [32]): 100%; percent of control binding remaining (lower = stronger binding) (broad panel of kinases [33]): 93%; percent of control binding remaining (lower = stronger binding) (broad panel of kinases [34]): 92%; percent of control binding remaining (lower = stronger binding) (broad panel of kinases [35]): 88%; percent of control binding remaining (lower = stronger binding) (broad panel of kinases [36]): 80%; percent of control binding remaining (lower = stronger binding) (broad panel of kinases [37]): 99%
